From patent US20240228458A1, “PYRIMIDINE DERIVATIVE HAVING PROTEIN KINASE INHIBITORY ACTIVITY, AND THERAPEUTIC PHARMACEUTICAL COMPOSITION COMPRISING SAME” (THERAPEX CO., LTD., priority 2021, published 2024) come the findings set out here.

Assay type in all cases: cell-based
Assay [1] has as its system Ba/F3 cells expressing del19/T790M/C797S (EGFR-DTC). Put plainly: Growth inhibition (GI50) of Ba/F3 cells expressing del19/T790M/C797S (EGFR-DTC), Celltiter glo. The following applies: Mus musculus, BaF3, 72 h. In short, it runs like this:
(§1)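 We seed Ba/F3 transfectants at 100,000 cells/ml, dose them with ten 4-fold compound dilutions (2 mM top stock, 0.5% DMSO) after 4 h, and culture for 72 h at 37 °C. CellTiter-Glo then reports viable cell number, from which the GI50 is fitted.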

Assay [2] concerns Ba/F3 cells expressing del19/T790M (EGFR-DT). Put plainly: Growth inhibition (GI50) of Ba/F3 cells expressing del19/T790M (EGFR-DT), Celltiter glo. Conditions: Mus musculus, BaF3, 72 h. In a few lines: as §1
Assay [3] concerns Ba/F3 cells expressing L858R/T790M (EGFR-LT). The experiment in a line: Growth inhibition (GI50) of Ba/F3 cells expressing L858R/T790M (EGFR-LT), Celltiter glo. The following applies: Mus musculus, BaF3, 72 h. In short, it runs like this:
as §1

The test system of another assay is parental Ba/F3 cell line. The experiment in a line: Growth inhibition (GI50) of the parental Ba/F3 cell line (not introduced with EGFR variants), Celltiter glo. Conditions: Mus musculus, BaF3, 72 h, parental Ba/F3 cells. In short, it runs like this:
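Viable cell count by CellTiter-Glo after 72 h at 37 °C gave GI50 values (μM, 50% growth inhibition). Cells lacking EGFR variants were seeded at 100,000 cells/ml and dosed 4 h later with 4-fold serial dilutions from a 2 mM stock, 0.5% DMSO.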

Assay [4] has as its system Ba/F3 cells expressing EGFR-wt. The experiment in a line: Growth inhibition (GI50) of Ba/F3 cells expressing EGFR-wt, Celltiter glo. The following applies: Mus musculus, BaF3, 72 h. In a few lines:
as §1

Assay [5] concerns Ba/F3 cells expressing L858R/T790M/C797S (EGFR-LTC). Put plainly: Growth inhibition (GI50) of Ba/F3 cells expressing L858R/T790M/C797S (EGFR-LTC), Celltiter glo. The following applies: Mus musculus, BaF3, 72 h. In short, it runs like this: as §1

Each structure is given as a SMILES string.

In the case of `COc1cc(N2CCC(N3CCCC(N(C)C)C3)CC2)c(C)cc1Nc1ncc(Cl)c(Nc2cc3c(cc2NS(C)(=O)=O)CCO3)n1` (stereo not drawn) [Example 218, N-(6-((5-chloro-2-((4-(3-(dimethylamino)-[1,4′-bipiperidin]-1′-yl)-2-methoxy-5-methylphenyl)amino)pyrimidin-4-yl)amino)-2,3-dihydrobenzofuran-5-yl)methanesulfonamide], the concentration for 50% growth inhibition (GI50) lay within 1 to 25 nM in assay [1]; 1 to 25 nM in assay [2]; 25 to 100 nM in assay [3]; 500 to 2000 nM with parental Ba/F3 cell line; 100 to 500 nM in assay [4]; 100 to 500 nM in assay [5].

In the case of `CN1CCN(C2CCN(c3cc(Cl)c(Nc4ncc(Br)c(Nc5cc6c(cc5N(C)S(C)(=O)=O)CCO6)n4)cc3Cl)CC2)CC1` [Example 253, N-(6-((5-bromo-2-((2,5-dichloro-4-(4-(4-methylpiperazin-1-yl)piperidin-1-yl)phenyl)amino)pyrimidin-4-yl)amino)-2,3-dihydrobenzofuran-5-yl)-N-methylmethanesulfonamide], the GI50 was 1 to 25 nM in assay [1]; 25 to 100 nM in assay [2]; 25 to 100 nM in assay [3]; 100 to 500 nM with parental Ba/F3 cell line; 500 to 2000 nM in assay [4]; 25 to 100 nM in assay [5].

Regarding `COc1cc(N2CCC(N3CCCN(C)CC3)CC2)c(C)cc1Nc1ncc(Br)c(Nc2ccc(F)cc2NS(C)(=O)=O)n1` [Example 38, N-(2-((5-bromo-2-((2-methoxy-5-methyl-4-(4-(4-methyl-1,4-diazepan-1-yl)piperidin-1-yl)phenyl)amino)pyrimidin-4-yl)amino)-5-fluorophenyl)methanesulfonamide], the GI50 in assay [1] lay in the range of 25 to 100 nM; in assay [2], 25 to 100 nM; in assay [3] it was 100 to 500 nM; with parental Ba/F3 cell line it was 500 to 2000 nM; in assay [4], 100 to 500 nM; in assay [5], 25 to 100 nM.

For the molecule `Cc1cc(Nc2ncc(Br)c(Nc3cc4c(cc3NS(C)(=O)=O)CCO4)n2)c(Cl)cc1N1CCC(N2CCC(N(C)C)C2)CC1` (stereo not drawn) [Example 213, N-(6-((5-bromo-2-((2-chloro-4-(4-(3-(dimethylamino)pyrrolidin-1-yl)piperidin-1-yl)-5-methylphenyl)amino)pyrimidin-4-yl)amino)-2,3-dihydrobenzofuran-5-yl)methanesulfonamide], the GI50 was in the range of 25 to 100 nM in assay [1]; 1 to 25 nM in assay [2]; 100 to 500 nM in assay [3]; 2000 to 10000 nM in the assay on parental Ba/F3 cell line; 100 to 500 nM in assay [4]; 25 to 100 nM in assay [5].

As for `COc1cc(N2CCC(N3CCCN(C)CC3)CC2)c(Cl)cc1Nc1ncc(Br)c(Nc2cc3c(cc2NS(C)(=O)=O)CCO3)n1` [Example 189, N-(6-((5-bromo-2-((5-chloro-2-methoxy-4-(4-(4-methyl-1,4-diazepan-1-yl)piperidin-1-yl)phenyl)amino)pyrimidin-4-yl)amino)-2,3-dihydrobenzofuran-5-yl)methanesulfonamide], the GI50 in assay [1] lay within 1 to 25 nM; in assay [2], 1 to 25 nM; in assay [3] it was 25 to 100 nM; in the assay on parental Ba/F3 cell line it was 500 to 2000 nM; in assay [4] it was 25 to 100 nM; in assay [5] it was 1 to 25 nM.

As for `CC(=O)Nc1ccc(Cl)cc1Nc1nc(Nc2ccc(N3CCC(N4CCN(C)CC4)CC3)c(F)c2)ncc1Cl` [Example 67, N-(4-chloro-2-((5-chloro-2-((3-fluoro-4-(4-(4-methylpiperazin-1-yl)piperidin-1-yl)phenyl)amino)pyrimidin-4-yl)amino)phenyl)acetamide], the GI50 in assay [1] was in the range of 25 to 100 nM; in assay [2], 100 to 500 nM; in assay [3] it was 100 to 500 nM; in the assay with parental Ba/F3 cell line, 2000 to 10000 nM; in assay [4], 100 to 500 nM; in assay [5], 25 to 100 nM.

In the case of `COc1cc(N2CCC(N3CCN(C)CC3)CC2)c(F)cc1Nc1ncc(Br)c(Nc2cc3c(cc2N(C)S(C)(=O)=O)CCO3)n1` [Example 256, N-(6-((5-bromo-2-((5-fluoro-2-methoxy-4-(4-(4-methylpiperazin-1-yl)piperidin-1-yl)phenyl)amino)pyrimidin-4-yl)amino)-2,3-dihydrobenzofuran-5-yl)-N-methylmethanesulfonamide], the GI50 was in the range of 25 to 100 nM in assay [1]; 1 to 25 nM in assay [2]; 100 to 500 nM in assay [3]; 100 to 500 nM in the assay on parental Ba/F3 cell line; 100 to 500 nM in assay [4]; 100 to 500 nM in assay [5].

`COc1cc(N2CCC(N3CCC(N(C)C)C3)CC2)c(C)cc1Nc1ncc(Br)c(Nc2cc3c(cc2NS(C)(=O)=O)CCO3)n1` (stereo not drawn) [Example 211, N-(6-((5-bromo-2-((4-(4-(3-(dimethylamino)pyrrolidin-1-yl)piperidin-1-yl)-2-methoxy-5-methylphenyl)amino)pyrimidin-4-yl)amino)-2,3-dihydrobenzofuran-5-yl)methanesulfonamide]: the GI50 fell in the range of 25 to 100 nM in assay [1]; 1 to 25 nM in assay [2]; 25 to 100 nM in assay [3]; 2000 to 10000 nM with parental Ba/F3 cell line; 100 to 500 nM in assay [4]; 1 to 25 nM in assay [5].

With `COc1cc(N2CCC(N3CCN(C)CC3)CC2)c(C)cc1Nc1ncc(Cl)c(Nc2cc3c(cc2N(C)S(C)(=O)=O)CCO3)n1` [Example 248, N-(6-((5-chloro-2-((2-methoxy-5-methyl-4-(4-(4-methylpiperazin-1-yl)piperidin-1-yl)phenyl)amino)pyrimidin-4-yl)amino)-2,3-dihydrobenzofuran-5-yl)-N-methylmethanesulfonamide], the GI50 in assay [1] lay within 25 to 100 nM; in assay [2] it was 1 to 25 nM; in assay [3], 1 to 25 nM; with parental Ba/F3 cell line, 2000 to 10000 nM; in assay [4], 100 to 500 nM; in assay [5], 1 to 25 nM.

Turning to `COc1nc(N2CCC(N3CCN(C)CC3)CC2)c(C)cc1Nc1ncc(Cl)c(Nc2cc3c(cc2NS(C)(=O)=O)CCO3)n1` [Example 241, N-(6-((5-chloro-2-((2-methoxy-5-methyl-6-(4-(4-methylpiperazin-1-yl)piperidin-1-yl)pyridin-3-yl)amino)pyrimidin-4-yl)amino)-2,3-dihydrobenzofuran-5-yl)methanesulfonamide], the concentration for 50% growth inhibition (GI50) in assay [1] lay in the range of 100 to 500 nM; in assay [2] it was 100 to 500 nM; in assay [3], 1 to 25 nM; in the assay on parental Ba/F3 cell line, 2000 to 10000 nM; in assay [4] it was 500 to 2000 nM; in assay [5], 25 to 100 nM.

Regarding `COc1ccc(NS(C)(=O)=O)c(Nc2nc(Nc3cc(C)c(N4CCC(N5CCC(N(C)C)C5)CC4)cc3OC)ncc2Cl)c1` (stereo not drawn) [Example 235, N-(2-((5-chloro-2-((4-(4-(3-(dimethylamino)pyrrolidin-1-yl)piperidin-1-yl)-2-methoxy-5-methylphenyl)amino)pyrimidin-4-yl)amino)-4-methoxyphenyl)methanesulfonamide], the GI50 lay in the range of 25 to 100 nM in assay [1]; 25 to 100 nM in assay [2]; 100 to 500 nM in assay [3]; 2000 to 10000 nM in the assay on parental Ba/F3 cell line; 500 to 2000 nM in assay [4]; 100 to 500 nM in assay [5].

Turning to `COc1cc(N2CCC(N3CCN(C)CC3)CC2)c(Br)cc1Nc1ncc(Br)c(Nc2cc3c(cc2NS(C)(=O)=O)CCO3)n1` [Example 271, N-(6-((2-((5-bromo-2-methoxy-4-(4-(4-methylpiperazin-1-yl)piperidin-1-yl)phenyl)amino)-5-bromopyrimidin-4-yl)amino)-2,3-dihydrobenzofuran-5-yl)methanesulfonamide], the GI50 in assay [1] lay within 1 to 25 nM; in assay [2], 1 to 25 nM; in assay [3], 1 to 25 nM; in the assay with parental Ba/F3 cell line, 2000 to 10000 nM; in assay [4], 2000 to 10000 nM; in assay [5], 1 to 25 nM.

Turning to `Cc1cc(Nc2ncc(Cl)c(Nc3cc(Cl)ccc3NS(C)(=O)=O)n2)c(Cl)cc1N1CCC(N2CCN(C)CC2)CC1` [Example 158, N-(4-chloro-2-((5-chloro-2-((2-chloro-5-methyl-4-(4-(4-methylpiperazin-1-yl)piperidin-1-yl)phenyl)amino)pyrimidin-4-yl)amino)phenyl)methanesulfonamide], the GI50 in assay [1] is 1 to 25 nM; in assay [2], 25 to 100 nM; in assay [3], 25 to 100 nM; with parental Ba/F3 cell line it was 2000 to 10000 nM; in assay [4] it was 500 to 2000 nM; in assay [5] it was 1 to 25 nM.

As for `Cc1cc(Nc2ncc(Cl)c(Nc3cc4c(cc3NS(C)(=O)=O)CCO4)n2)c(Cl)cc1N1CCC(N2CCCN(C)CC2)CC1` [Example 172, N-(6-((5-chloro-2-((2-chloro-5-methyl-4-(4-(4-methyl-1,4-diazepan-1-yl)piperidin-1-yl)phenyl)amino)pyrimidin-4-yl)amino)-2,3-dihydrobenzofuran-5-yl)methanesulfonamide], the GI50 is 1 to 25 nM in assay [1]; 25 to 100 nM in assay [2]; 1 to 25 nM in assay [3]; 100 to 500 nM in the assay with parental Ba/F3 cell line; 100 to 500 nM in assay [4]; 1 to 25 nM in assay [5].

Turning to `COc1cc(N2CCC(N3CCCN(C)CC3)CC2)c(C)cc1Nc1ncc(Cl)c(Nc2cc3c(cc2N(C)S(C)(=O)=O)CCO3)n1` [Example 265, N-(6-((5-chloro-2-((2-methoxy-5-methyl-4-(4-(4-methyl-1,4-diazepan-1-yl)piperidin-1-yl)phenyl)amino)pyrimidin-4-yl)amino)-2,3-dihydrobenzofuran-5-yl)-N-methylmethanesulfonamide], the GI50 in assay [1] was in the range of 25 to 100 nM; in assay [2], 25 to 100 nM; in assay [3], 25 to 100 nM; in the assay on parental Ba/F3 cell line, 500 to 2000 nM; in assay [4], 100 to 500 nM; in assay [5], 25 to 100 nM.
